Results on five compounds are retold here after patent US8334316B2, “Substituted organosulfur compounds and methods of using thereof” (ACEA Biosciences, Inc., priority 2004, dated 2012).

For data set [1], the system named is P388 lymphocytic leukemia. The data set is described as follows: Murine P388 lymphocytic leukemia model (intraperitoneal transplantation), life span. Particulars: 2 mg/kg/d iv x7 qd. The class given is in vivo, mouse. The protocol:
Both male and female mice were used.
Preparation and Administration of Test Compounds.
To prepare cancer cells for the P388 murine lymphocytic leukemia model, ascites of a P388 leukemia-bearing mouse were removed under sterile condition. The ascites were diluted in normal saline (1:6 for ascites to normal saline) to prepare cell suspension. 0.2 mL of the cell suspension was then injected intraperitoneally. […] The life span of carrier mice was determined within 30 days. The life span ratio comparing to the negative control group of the carrier mice in each compound treatment group was calculated according to the formula: Life span ratio %=average life span for the compound treatment group/average life span for the negative control group×100% (4)

The test system of a further data set is mouse sarcoma S180. The data set is described as follows: In vivo antitumor efficacy, mouse sarcoma S180 model (subcutaneously transplanted), Example 1. The conditions noted are these: 30 mg/kg/d ip x7 qd.
The subject of data set [2] is mouse Lewis lung cancer. The data set is described as follows: In vivo antitumor efficacy, mouse Lewis lung cancer model (subcutaneously transplanted), Example 1. The protocol:
Test controls. For the negative control, two groups were set up: the solvent only control group and normal saline control group. […] In the normal saline group, each mouse was administered with 0.5 ml of normal saline, once per day and for 7 or 10 consecutive days. For the positive control group, the anticancer compound, cyclophosphamide (CTX) was administered intraperitoneally at 30 mg/kg, once per day and for 7 or 10 consecutive days.
In the mouse Lewis lung cancer model, 200 mg of DBTS was dissolved in 5 mL castor oil (in polyoxyethlated version). […] The intravenous injection speed was about 0.5 mL/0.5 min.
The dosages and administration of test compounds are within the knowledge of those commonly skilled in pharmacology. For example, the test compounds may be administered by intravenous injection with a test compound solution twice per day and for 7 consecutive days. Alternatively, the test compounds may be administered by intravenous injection with a test compound solution once per day and for 10 consecutive days.
0.2 mL of the tumor cell suspension (between 4 and 8 million tumor cells) was then transplanted back into an experimental mouse by subcutaneous injection. […] Each removed solid tumor was weighted, and the tumor inhibition rate in the DBTS-treated groups and in the CTX-treated group was calculated according to the formula: Tumor inhibition rate %=(average weight of tumor in the negative control group−average weight of tumor in the compound treated group)/average weight of tumor in the negative control group×100 (2)
For the mouse Lewis lung cancer model, the Lewis lung cancer cells were subcutaneously transplanted at approximately 5 million cells per mouse. After 24 hours of the transplantation, each mouse in the test group was administered intravenously with dibenzyl trisulfide at 50, 25, or 12.5 mg/kg per day and for 10 consecutive days. For the positive control group, each mouse was administered with CTX at […] intraperitoneally per day and for 10 consecutive days. For the negative control group, each mouse was administered intravenously either with normal saline, or with the solvent for dibenzyl trisulfide at the same concentration as that in the test group per day and for consecutive 10 days. For each group, 10 mice were used.

In data set [3] the test system is mouse Lewis lung cancer. The data set is described as follows: In vivo antitumor efficacy, mouse Lewis lung cancer model, Example 2 (DBTS, CTX, Taxol reference). Particulars: 30 mg/kg/d ip x7 qd.
The test system of a further data set is HT1080 cells. The data set is described as follows: Inhibition of cancer cell proliferation, IC50 of ACEA100129 (RT-CES or MTT, not specified), HT1080. The class given is cell-based. Particulars: Homo sapiens, HT-1080. The protocol: (§1) The anticancer potency of DBTS and its derivatives were tested in 8 different types of human cancer cell lines using the RT-CES system and MTT assay. The 8 cancer cell lines were HT1080 (the human fibrosarcoma cell line), H460 (human non small cell lung cancer cell line), OVCAR4 (the human ovarian cancer cell line), MCF7 (human breast cancer cell line) MDA-MB231 (M231, the human breast cancer cell line) A2780 (the human […] cancer cell line) Jurkat (the human T cell leukemia cell line). The test DBTS derivatives include ACEA100107, ACEA100108, ACEA100109, ACEA100111, ACEA100115, ACEA100116, ACEA100117, ACEA100118, ACEA100119, and ACEA100120.
(§2) For the assay performed on the RT-CES system, the cells were seeded into the 16× or 96× microtiter plate devices (electronic plates, i.e., the plates comprise microelectrode sensor arrays in the wells of the plate) at the seeding density ranging from 5000 cells/well to 15,000 cells/well. The cells were incubated at 5% CO2 and 37° C. for overnight till the cell indices reached the growth phase where the cell index was between 0.8 and 1.2. […] The time-dependent IC50 values for each derivative were calculated based the dose responses of cell index value at different time points after compound treatment. […]

The subject of the next data set is HELA cells. The data set is described as follows: Inhibition of cancer cell proliferation, IC50 of ACEA100129 (RT-CES or MTT, not specified), HELA. The data set is classed as cell-based. Particulars: Homo sapiens. The procedure:
as §1, §2

The test system of the next data set is MCF7 cells. The data set is described as follows: Inhibition of cancer cell proliferation, IC50 of ACEA100129 (RT-CES or MTT, not specified), MCF7. The class given is cell-based. Particulars: Homo sapiens. The protocol:
as §1, §2

The subject of data set [4] is microtubules in COS cells. The data set is described as follows: Microtubule network in cultured COS cells (anti-tubulin immunofluorescence, confocal microscopy). The class given is cell-based. The procedure:
Cell Culture and Immunocytochemistry. COS cells were grown in DMEM media supplemented with non-essential amino acids, 10% FBS, antibiotic-antimycotic (Gibco BRL) at 37° C. and 5.5% CO2. […] Cells were then rinsed once with warm PBS, fixed with cold methanol, rinsed again in PBS and blocked overnight at 4° C. in PBT (PBS, 1% BSA, 0.5% Triton X-100). All subsequent stains and washes were done in PBT at room temperature unless stated otherwise. Cells were stained with the anti-tubulin mouse antibody DM-1 at 1:1000 for 1 hour, washed four times for 15 minutes each and then treated with Cy-3 conjugated goat anti mouse antibody at 1:100 for 1 hour in the dark. Next, samples were washed four times for 15 minutes each in PBT in the dark followed by a final 15 minute wash in PBS in the dark. Samples were then viewed by laser scanning confocal microscopy.

Data set [5] concerns A549 human lung cancer cells. The data set is described as follows: Apoptosis: Annexin V-Cy3 / 6-CFDA staining of A549 cells. The data set is classed as cell-based. The conditions noted are these: 10 nM, 24 hrs. The protocol: The cells were incubated with the drugs for 24 hours and then washed 2× with PBS and 3× with binding buffer (10 mM HEPES, pH 7.5, 140 mM NaCl, 2.5 mM CaCl2). […] The cells were gently washed 3× in 1× binding buffer, mounted, viewed under immunofluorescent microscope and imaged using an attached CCD camera. Note that live cells show staining only with 6-CFDA (green), while necrotic cells will stain only with Annexin V-Cy3 (red). Cells starting the apoptotic process will stain both with AnnexinV-Cy3 and 6-CFDA.

Data set [6] concerns A431 cells (human epidermoid cancer cells). The data set is described as follows: RT-CES system cell proliferation, A431. The class given is cell-based. The conditions noted are these: FIG. 6B.
Protocol: A431 cells (human epidermoid cancer cells) were seeded into wells of microtiter plate devices (electronic plates, i.e., the plates comprise microelectrode sensor arrays in the wells of the plate) with an initial seeding density of 10,000 cells per well and were pre-incubated in incubator under standard cell culture conditions for about 22.3 hrs. Various concentrations of DBTS and 5-fluorouracil solutions were added into wells following the incubation period. The cell status was monitored prior to and after the compound addition using RT-CES system.

With `CO[C@@]12[C@H](COC(N)=O)C3=C(C(=O)C(C)=C(N)C3=O)N1C[C@@H]1N[C@@H]12` [MMC, mitomycin C, reference compound], in data set [1], the “Beginning animal weight” value came out at 20.6 g and the “animal No. beginning/end (survivors)” value is 10/1. Also, in data set [1] (observed within 30 days), the “Average life span X ± SD” value came out at 18.1 ± 0.15. In addition, the “Life span ratio %” value in data set [1] (vs solvent control) is 186.59%.
Take `O=P1(N(CCCl)CCCl)NCCCO1` (centres unmarked) [CTX, cyclophosphamide, reference compound]: the “Animal weight (g) beginning” value came to 19.6 g in the data set on mouse sarcoma S180, 19.1 g with mouse Lewis lung cancer [2] (30 mg/kg/d ip) and 21.1 g with mouse Lewis lung cancer [3]. Besides, the “Animal weight (g) end” value in the data set on mouse sarcoma S180 is on record as 20.3 g; with mouse Lewis lung cancer [2] (30 mg/kg/d ip), 20.2 g; in the data set on mouse Lewis lung cancer [3], 22.3 g. Also, the “Inhibition rate (%)” value in the data set with mouse sarcoma S180 (vs 10% solvent control) is given as 88.83%; with mouse sarcoma S180 (vs normal saline control) it was 91.76%; in the data set on mouse Lewis lung cancer [2] (30 mg/kg/d ip x7 qd, vs 5% solvent control), 85.83%; with mouse Lewis lung cancer [2] (30 mg/kg/d ip x10 qd, vs normal saline control), 87.62%. Moreover, in the data set on mouse Lewis lung cancer [3], the “Tumor weight” value is listed as 0.258 ± 0.09 g. For the same compound, the “tumor inhibition rate %” value in the data set on mouse Lewis lung cancer [3] (vs normal saline control) was found to be 90.75%.
What is called IC50 is the midpoint of a concentration-inhibition curve. Higher therefore signals lower potency. With `Cc1ccc(CSSSCc2ccc(C)cc2)cc1` [ACEA100129, Di(p-methylbenzyl)trisulfide], the IC50 with HT1080 cells worked out at 820 nM; with HELA cells, 420 nM; in the data set with MCF7 cells, 2300 nM.
Regarding `CC[C@]1(O)C[C@@H]2CN(CCc3c([nH]c4ccccc34)[C@@](C(=O)OC)(c3cc4c(cc3OC)N(C)[C@H]3[C@@](O)(C(=O)OC)[C@H](OC(C)=O)[C@]5(CC)C=CCN6CC[C@]43[C@@H]65)C2)C1` [vinblastine, reference compound], the Microtubule network appearance result in data set [4] (4 hours exposure) is “the microtubule network begins to fall apart and the microtubules become much shorter”; in data set [4] (24 hours exposure, increasing dosage), “major cell abnormalities are widespread in the microtubule network”. In addition, the “Annexin V staining (apoptosis)” value in [5] was “strong staining of Annexin V”.
As for `O=c1[nH]cc(F)c(=O)[nH]1` [5-fluorouracil], the “Concentration showing inhibitory ability against proliferation” value in data set [6] was not below 12.5 µM.
